Reference: patent publication US8138189B2, “Substituted benzene compounds as modulators of the glucocorticoid receptor” (Hoffman-La Roche Inc., priority 2009, dated 2012)
pKi: −log10 of the molar value.

Molecular target: T1, full length human recombinant glucocorticoid receptor (Homo sapiens, UniProt P04150)
T1 construct: partially purified full length human recombinant glucocorticoid receptor; purchased Panvera/Invitrogen PV4302
T1 sequence (P04150 1-777): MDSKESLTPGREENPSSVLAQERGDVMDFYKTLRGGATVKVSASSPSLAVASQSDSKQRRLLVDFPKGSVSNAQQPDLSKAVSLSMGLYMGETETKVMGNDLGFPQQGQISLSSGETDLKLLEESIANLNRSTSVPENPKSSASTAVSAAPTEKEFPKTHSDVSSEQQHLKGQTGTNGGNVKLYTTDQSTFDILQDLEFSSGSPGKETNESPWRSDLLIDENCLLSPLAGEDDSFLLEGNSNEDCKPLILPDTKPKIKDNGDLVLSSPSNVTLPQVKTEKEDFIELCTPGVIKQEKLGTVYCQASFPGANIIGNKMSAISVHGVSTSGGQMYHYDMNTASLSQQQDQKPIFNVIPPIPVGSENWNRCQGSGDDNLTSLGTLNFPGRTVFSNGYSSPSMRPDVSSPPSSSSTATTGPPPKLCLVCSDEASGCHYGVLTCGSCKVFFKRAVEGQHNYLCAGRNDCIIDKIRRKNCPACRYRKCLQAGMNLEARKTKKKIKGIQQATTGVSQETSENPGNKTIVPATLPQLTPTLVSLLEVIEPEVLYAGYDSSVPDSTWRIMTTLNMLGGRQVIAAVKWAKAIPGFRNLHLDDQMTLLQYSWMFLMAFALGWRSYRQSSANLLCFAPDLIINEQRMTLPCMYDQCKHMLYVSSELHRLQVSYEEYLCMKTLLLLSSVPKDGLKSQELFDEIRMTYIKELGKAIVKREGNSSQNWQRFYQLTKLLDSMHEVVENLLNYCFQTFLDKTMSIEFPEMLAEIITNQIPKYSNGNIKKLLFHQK
Test: Glucocorticoid Receptor Binding Assay (fluorescence polarization competitor assay, Fluormone GS Far Red tracer)
Method: Glucocorticoid Receptor Binding Assay
The ability of the substances to bind to the glucocorticoid receptor was determined with the help of a commercial Glucocorticoid Receptor Competitor Assay far red kit provided by Panvera/Invitrogen (PV4302). This kit is used as provided by the supplier. It contains some partially purified full length human recombinant glucocorticoid receptor, a coactivator related GR stabilizing peptide, a tight-binding fluorescent GR ligand Fluormone™ GS Far Red as labeled tracer and a screening buffer. All reagents are prepared and the assay is run according to the recommendations of the kit manufacturer.
Briefly, the GR stabilizing peptide and the human recombinant glucocorticoid receptor are both diluted with the screening buffer (pH 7.4) and are gently mixed (no vortexing) just before the assay and kept on ice until use. The fluorescent-labeled ligand is also diluted with the screening buffer just before the assay and kept on ice until use. The substances to test are pre-diluted in pure DMSO then some water is added to get an intermediate 4.2% DMSO stock solution. Ten microliter of the intermediate stock solution is gently mixed with 5 μl of diluted fluorescent-labeled ligand and 5 μl of diluted human recombinant glucocorticoid receptor in a 384-well plate (low volume, ultraclear, glass plate from Greiner ref 788896). The plate is centrifuged, sealed and incubated for 3 hours at 22° C. in the dark. The polarized fluorescence is measured with a Zeiss-HTS reader or any equivalent equipment (610-660 nm).
All compounds were tested to determine IC50 in a serial dilution experiment. The concentration at which 50% inhibition of the fluorescent GR ligand Fluormone™ GS Far Red is obtained (the IC50) is determined after fitting with a sigmoidal dose-response model of a plot of the logarithm of the concentration versus percent inhibition measured for the different concentrations. Ki's were calculated from IC50 based on Cheng-Prusoff equation (Cheng, Y, Prusoff, W H (1973) Biochem Pharmacol 22, 3099-3108): Ki=IC50/[1+D/Kd] wherein D is the concentration of the fluorescent ligand and Kd is the binding constant for the fluorescent ligand binding to the receptor under the conditions used in the competition experiment.

COC(=O)c1ccc(Oc2ccc([C@@H](C)[C@@](O)(c3ccc(=O)n(C)c3)C(F)(F)F)c(Cl)c2)cc1 (relative stereo) [Example 151, 4-{3-Chloro-4-[3,3,3-trifluoro-2-hydroxy-1-methyl-2(1-methyl-6-oxo-1,6-dihydro-pyridin-3-yl)-propyl]-phenoxy}-benzoic acid methyl ester]
pKi: 8.62

C[C@H](c1ccc(Oc2ccc(C(=O)O)cc2F)cc1Cl)[C@@](O)(c1ccc(=O)n(C)c1)C(F)(F)F (relative stereo) [Example 156, 4-{3-Chloro-4-[3,3,3-trifluoro-2-hydroxy-1-methyl-2-(1-methyl-6-oxo-1,6-dihydro-pyridin-3-yl)-propyl]-phenoxy}-3-fluoro-benzoic acid]
pKi: 9.05

C[C@H](c1ccc(Oc2ccc(C(=O)O)cc2Cl)cc1Cl)[C@@](O)(c1ccc(=O)n(C)c1)C(F)(F)F (relative stereo) [Example 157, 3-Chloro-4-{3-chloro-4-[3,3,3-trifluoro-2-hydroxy-1-methyl-2(1-methyl-6-oxo-1,6-dihydro-pyridin-3-yl)-propyl]-phenoxy}-benzoic acid]
pKi: 9.15

CCOC(=O)COc1ccc(Oc2ccc([C@@H](C)[C@@](O)(c3ccc(=O)n(C)c3)C(F)(F)F)c(Cl)c2)cc1 (relative stereo) [Example 159, (4-{3-Chloro-4-[3,3,3-trifluoro-2-hydroxy-1-methyl-2-(1-methyl-6-oxo-1,6-dihydro-pyridin-3-yl)-propyl]-phenoxy}-phenoxy)-acetic acid ethyl ester]
pKi: 8.70

COC(=O)c1cnc(Oc2ccc([C@@H](C)[C@@](O)(c3ccc(=O)n(C)c3)C(F)(F)F)c(Cl)c2)cc1C(F)(F)F (relative stereo) [Example 163, 6-{3-Chloro-4-[3,3,3-trifluoro-2-hydroxy-1-methyl-2-(1-methyl-6-oxo-1,6-dihydro-pyridin-3-yl)-propyl]-phenoxy}-4-trifluoromethyl-nicotinic acid methyl ester]
pKi: 7.62

C[C@H](c1ccc(-c2ccc(F)c(C(=O)O)c2)cc1Cl)[C@@](O)(c1ccc(=O)n(C)c1)C(F)(F)F (relative stereo) [Example 165, 3′-Chloro-4-fluoro-4′-[3,3,3-trifluoro-2-hydroxy-1-methyl-2-(1-methyl-6-oxo-1,6-dihydro-pyridin-3-yl)-propyl]-biphenyl-3-carboxylic acid]
pKi: 7.55

C[C@@H](c1ccc(-c2ccc(CC(=O)O)cc2)cc1Cl)[C@](O)(c1ccc(=O)n(C)c1)C(F)(F)F (relative stereo) [Example 171, {3′-Chloro-4′-[3,3,3-trifluoro-2-hydroxy-1-methyl-2-(1-methyl-6-oxo-1,6-dihydro-pyridin-3-yl)-propyl]-biphenyl-4-yl}-acetic acid]
pKi: 7.10

C[C@@H](c1ccc(Oc2ccc(C(=O)O)cc2)cc1Cl)[C@](O)(c1ccc(=O)[nH]c1)C(F)(F)F (relative stereo) [Example 175, 4-{3-Chloro-4-[3,3,3-trifluoro-2-hydroxy-1-methyl-2-(6-oxo-1,6-dihydro-pyridin-3-yl)-propyl]-phenoxy}-benzoic acid]
pKi: 7.12

C[C@@H](c1ccc(-c2ccc(C(=O)O)c(Cl)c2)cc1Cl)[C@](O)(c1ccc(=O)[nH]c1)C(F)(F)F (relative stereo) [Example 179, 3,3′-Dichloro-4′-[3,3,3-trifluoro-2-hydroxy-1-methyl-2-(6-oxo-1,6-dihydro-pyridin-3-yl)-propyl]-biphenyl-4-carboxylic acid]
pKi: 6.30

C[C@@H](c1ccc(-c2ccc(CC(=O)O)cc2)cc1Cl)[C@](O)(c1ccc(=O)[nH]c1)C(F)(F)F (relative stereo) [Example 182, {3′-Chloro-4′-[3,3,3-trifluoro-2-hydroxy-1-methyl-2-(6-oxo-1,6-dihydro-pyridin-3-yl)-propyl]-biphenyl-4-yl}-acetic acid]
pKi: 6.38
